In patent US20020156269A1, “Crystals of diuridine tetraphosphate or salt thereof, process for producing the crystals, and process for producing the compounds” (YAMASA CORPORATION, priority 1998, published 2002):

Experiments:
[1] = Hygroscopicity: standing for nine days at controlled temperature and relative humidity; type: physicochemical; conditions: for decomposition or change in weight on standing: initial water content approximately 14%
Protocol: U2P4.4Na crystals (octahydrate) having a water content of approximately 14% were allowed to stand for nine days under the following conditions: a) 25° C. and a relative humidity of 57%; b) 25° C. and a relative humidity of 75%; and c) 40° C. and a relative humidity of 75%. […] The crystals have proven to be stable and to have no hygroscopicity. U2P4.4Na crystals (tetrahydrate) having a water content of approximately 8% were allowed to stand for nine days under conditions of 40° C. and a relative humidity of 75%. In this case, the water content increased to 14-15%.

[2] = Stability: acceleration test in sealed bottles at 60° C. for 13 days; type: physicochemical; conditions: sealed bottle, 13 days at 60° C.
Protocol: U2P4.4Na crystals (octahydrate) and a lyophilized product were placed in respective bottles, which were then sealed and allowed to stand for 13 days at 60° C. (acceleration test).

| state of the product on storage ([1]; 40° C. and a relative humidity of 75%, on the seventh day of storage) | change of water content on standing ([1]; nine days, 40° C. and a relative humidity of 75%, initial water content approximately 1%) | decomposition [2] | weight loss of U2P4.4Na [2] | water content after standing ([1]; nine days, 40° C. and a relative humidity of 75%, initial water content approximately 8% (tetrahydrate)) | decomposition or change in weight on standing ([1]; nine days, 25° C. and a relative humidity of 57%) | decomposition or change in weight on standing ([1]; nine days, 25° C. and a relative humidity of 75%) | decomposition or change in weight on standing ([1]; nine days, 40° C. and a relative humidity of 75%) | Compound |
| --- | --- | --- | --- | --- | --- | --- | --- | --- |
| mud-like state due to deliquescence | increased gradually | partial decomposition | approximately 1.4% | – | – | – | – | O=c1ccn([C@@H]2O[C@H](COP(=O)([O-])OP(=O)([O-])OP(=O)([O-])OP(=O)([O-])OC[C@H]3O[C@@H](n4ccc(=O)[nH]c4=O)C(O)C3O)C(O)C2O)c(=O)[nH]1.[Na+].[Na+].[Na+].[Na+] (stereo partly drawn) [lyophilized product, P^1,P^4-di(uridine 5′-)tetraphosphate tetrasodium salt, reference compound] |
| – | – | – | – | 14-15% | – | – | – | O=c1ccn([C@@H]2O[C@H](COP(=O)([O-])OP(=O)([O-])OP(=O)([O-])OP(=O)([O-])OC[C@H]3O[C@@H](n4ccc(=O)[nH]c4=O)C(O)C3O)C(O)C2O)c(=O)[nH]1.[Na+].[Na+].[Na+].[Na+] (stereo partly drawn) [U2P4.4Na crystals (tetrahydrate), P^1,P^4-di(uridine 5′-)tetraphosphate tetrasodium salt] |
| – | – | No decomposition | – | – | No decomposition or change in weight | No decomposition or change in weight | No decomposition or change in weight | O=c1ccn([C@@H]2O[C@H](COP(=O)([O-])OP(=O)([O-])OP(=O)([O-])OP(=O)([O-])OC[C@H]3O[C@@H](n4ccc(=O)[nH]c4=O)C(O)C3O)C(O)C2O)c(=O)[nH]1.[Na+].[Na+].[Na+].[Na+] (stereo partly drawn) [U2P4.4Na crystals (octahydrate), P^1,P^4-di(uridine 5′-)tetraphosphate tetrasodium salt] |
